Laboratory results: paper PMC6476928 (Frontiers in Pharmacology, 2019)
Positions count from the first letter of the chain named.

Experiments:
[1] = test system: A-type potassium channels in DRG cells; settings: ref Zeng et al., 2008; read-out: IC50, block of A-type potassium channels in DRG cells; cited from earlier work
[2] = test system: action potential of NRVMs; test: Action potential recording in neonatal rat ventricular myocytes; format: cell-based; settings: 100 nM JZTX-V
Description: (§1) Neonatal rat ventricular myocytes cells were obtained from ventricles of neonatal Sprague–Dawley rats as previously reported ([Sung et al., 2012]; [Yan et al., 2018]). SD rats (Hunan SJA Laboratory Animal Co., Ltd., Changsha, China) were used according to the guidelines of the National Institutes of Health for Care and Use of Laboratory Animals. The experiments were approved by the Animal Care and Use Committee of Hunan Normal University.
The APs, Pipette solution contained (mM) 120 KCl, 1 MgCl2, 10 EGTA, 10 Hepes, and 3 MgATP (pH = 7.4). The extracellular buffer contained (mM) 140 NaCl, 5.4 KCl, 1.3 CaCl2, 0.5 MgCl2, 5 Hepes, and 5.5 glucose (pH = 7.4).
(§2) All data points are shown as mean SEM.

[3] = test system: Ito1 current of NRVMs; test: Whole-cell patch clamp of Ito1 current in neonatal rat ventricular myocytes; format: cell-based; settings: 100 nM JZTX-V, at 30 mV, holding potential −40 mV, N = 4, mean ± SEM
Description: as §1
Ito currents, The Ca^2+-currents blocker CdCl2 (200-μmol/L) were used in external solutions. To generate Ito1 current, cells were held at −40 mV to inactivate the fast Na^+ current and then stepped to potentials of −40 mV to +60 mV in 10-mV increments.
as §2

[4] = molecular target: T1, Kv4.2 (Homo sapiens, UniProt Q9NZV8); test: Whole-cell patch clamp of WT Kv4.2 co-expressed with KChIP2 in HEK293T cells; format: cell-based; set-up: expressed in transfected cells; host or cells: HEK293T
T1 sequence (Q9NZV8 1-630): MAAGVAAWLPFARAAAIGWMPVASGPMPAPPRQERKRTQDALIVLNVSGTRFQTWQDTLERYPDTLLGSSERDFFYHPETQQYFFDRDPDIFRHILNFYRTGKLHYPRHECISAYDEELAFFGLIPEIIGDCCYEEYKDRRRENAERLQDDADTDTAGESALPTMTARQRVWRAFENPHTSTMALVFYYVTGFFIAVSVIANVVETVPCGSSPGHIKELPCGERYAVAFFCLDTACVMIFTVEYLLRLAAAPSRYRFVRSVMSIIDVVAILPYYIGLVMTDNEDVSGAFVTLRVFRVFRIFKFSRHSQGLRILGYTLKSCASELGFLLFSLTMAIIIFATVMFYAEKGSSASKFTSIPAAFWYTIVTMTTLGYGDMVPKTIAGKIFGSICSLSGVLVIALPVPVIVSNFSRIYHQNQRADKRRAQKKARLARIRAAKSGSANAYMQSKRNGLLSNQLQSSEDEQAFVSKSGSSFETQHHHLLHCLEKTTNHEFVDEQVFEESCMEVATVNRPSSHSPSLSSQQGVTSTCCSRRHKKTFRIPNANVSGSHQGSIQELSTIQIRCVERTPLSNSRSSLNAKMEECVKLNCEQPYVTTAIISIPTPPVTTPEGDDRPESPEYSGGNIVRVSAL
T1 sequence (Q9NS61 1-270 partner): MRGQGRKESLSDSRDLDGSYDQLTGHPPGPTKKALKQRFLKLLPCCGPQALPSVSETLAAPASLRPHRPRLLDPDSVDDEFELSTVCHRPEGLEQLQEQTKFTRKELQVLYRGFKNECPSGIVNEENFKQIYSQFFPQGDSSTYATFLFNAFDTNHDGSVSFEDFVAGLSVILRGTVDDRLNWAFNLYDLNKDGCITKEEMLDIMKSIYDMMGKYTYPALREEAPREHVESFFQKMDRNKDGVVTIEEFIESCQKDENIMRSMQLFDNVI
Description: (§3) Human embryonic kidney cell line (HEK293T) was obtained from Shanghai Institute of Cell Biology, Chinese Academy of Sciences (Shanghai, China) and maintained with 5% CO2 at 37°C in DMEM supplemented with 10% heat-inactivated fetal calf and serum (FBS), penicillin (100 U/ml), and streptomycin (100 μg/ml). The WT/mutant Kv4.2 plasmids were transiently transfected into HEK293T by Lipofectamine^TM 2000 Reagent (Invitrogen), and the KChIP2 subunits were co-transfected with Kv4.2.
(§4) The extracellular buffer and pipette solution for AP, Ito, and Kv4.2 were used as follows.
Kv4.2 current, The pipette solution contained (mM) 140 KF, 5 ATP-2Na, 1 EGTA, and 10 HEPEs (pH = 7.4). […] The Kv4.2 currents were elicited by a 300-ms depolarizing voltage of 10 mV from a holding potential of −80 mV. The steady-state activation of Kv4.2 was measured with the holding potential −80 mV and applied from −80 mV to 70 mV (10-mV increments). Steady-state inactivation of Kv4.2 channel measured with a series of a 300-ms depolarizing test potential of 10 mV followed a 1000-ms prepulse at potentials ranging from −120 to +70 mV with a 5-mV increment.
Data were analyzed using the clampfit (Axon) and Origin 9 software programs. All data points are shown as mean SEM. The significance was estimated using unpaired two-tailed t-tests, and a P < 0.05 was considered statistically significant. n stands for the number of the separate experimental cells. […] The steady-state activation relationship was measured using Boltzmann function (f(V) = 1/{1 + exp[−(V−V1/2)/k]}^4). Steady-state inactivation was measured using the Boltzmann function f(V) = 1/{1 + exp[−(V − V1/2)/k]}.

[5] = molecular target: T2, Kv4.2 F289A (Homo sapiens, UniProt Q9NZV8, F289A); test: Patch clamp of Kv4.2 mutant F289A in HEK293T cells; format: cell-based
T2 construct: expressed in transfected cells; host or cells: HEK293T
T2 sequence (Q9NZV8 1-630 F289A): T1 sequence (Q9NZV8 1-630) with F289A
T2 sequence (Q9NS61 1-270 partner): T1 sequence (Q9NS61 1-270 partner)
Description: as §3, §4
Kv4.2 current, The pipette solution contained (mM) 140 KF, 5 ATP-2Na, 1 EGTA, and 10 HEPEs (pH = 7.4). […] The steady-state activation of Kv4.2 was measured with the holding potential −80 mV and applied from −80 mV to 70 mV (10-mV increments). Steady-state inactivation of Kv4.2 channel measured with a series of a 300-ms depolarizing test potential of 10 mV followed a 1000-ms prepulse at potentials ranging from −120 to +70 mV with a 5-mV increment.
Data were analyzed using the clampfit (Axon) and Origin 9 software programs. […] The steady-state activation relationship was measured using Boltzmann function (f(V) = 1/{1 + exp[−(V−V1/2)/k]}^4). Steady-state inactivation was measured using the Boltzmann function f(V) = 1/{1 + exp[−(V − V1/2)/k]}.

[6] = test system: Kv4.2 S1–S2 linker mutants; test: Patch clamp of Kv4.2 S1–S2 linker alanine mutants in HEK293T cells; format: cell-based; settings: all S1–S2 linker mutants, N = 5
Description: as §2

[7] = test system: Kv4.2 I275A; test: Patch clamp of Kv4.2 mutant I275A in HEK293T cells; format: cell-based
Description: as §2

[8] = test system: kv4.1; settings: 5µM, X. laevis oocytes; cited from earlier work
Description: Supplement Data_Sheet_1.docx, table 1: Supplementary Table 1.Activity of spider toxins on Kv2 and Kv4 channel subtypes Activities of spider toxins against different subtypes of Kv2 and Kv4 potassium channels are reported as IC50 (nanomolar) or as percentage of current inhibition at a single dose (nanomolar). Affinity (IC50) measurements | column: kv4.1

[9] = test system: Kv4.2 L277A; test: Patch clamp of Kv4.2 mutant L277A in HEK293T cells; format: cell-based
Description: as §2

CC[C@H](C)[C@H](NC(=O)[C@@H](NC(=O)[C@H](CCCCN)NC(=O)[C@H](CCCNC(=N)N)NC(=O)[C@@H]1CSSC[C@@H]2NC(=O)[C@H](C)NC(=O)[C@H](CCCNC(=N)N)NC(=O)[C@H](CCCCN)NC(=O)[C@H](CO)NC(=O)[C@H](CC(=O)O)NC(=O)[C@@H]3CSSC[C@H](NC(=O)[C@H](CCCNC(=N)N)NC(=O)[C@H](CC(C)C)NC(=O)CNC(=O)[C@H](CCC(=O)O)NC(=O)[C@H](CSSC[C@H](NC(=O)[C@@H](N)Cc4ccc(O)cc4)C(=O)N[C@@H](CCC(N)=O)C(=O)N[C@@H](CCCCN)C(=O)N[C@@H](Cc4c[nH]c5ccccc45)C(=O)N[C@@H](CCSC)C(=O)N[C@@H](Cc4c[nH]c5ccccc45)C(=O)N[C@@H]([C@@H](C)O)C(=O)N3)NC2=O)C(=O)N[C@@H](CCCCN)C(=O)N[C@@H](CC(C)C)C(=O)N[C@@H](Cc2c[nH]c3ccccc23)C(=O)N1)[C@@H](C)CC)C(=O)O [JZTX-V, Jingzhaotoxin-V]
IC50 [1]: 0.0523 µM | APD10 compared with vehicle-treated group ([2]; 1 Hz, N = 5): 123.53 ± 4.23% | APD50 compared with vehicle-treated group ([2]; 1 Hz, N = 5): 124.34 ± 3.17% | APD90 compared with vehicle-treated group ([2]; 1 Hz, N = 5): 126.26 ± 3.23% | effect on APD10–50 ([2]; N = 5): did not affect | effect on APD50–90 ([2]; N = 5): did not affect | APD10 after treatment ([2]; control 12 ± 1 ms): 15 ± 1.7 ms | APD50 after treatment ([2]; control 88 ± 6 ms): 109 ± 8 ms | APD90 after treatment ([2]; control 245 ± 7 ms): 309 ± 10 ms | inhibition of Ito1 current of NRVMs [3]: 78 ± 4.32% | inhibition at 0.1 µM ([4]; HEK-293T, read-out: inhibition of Kv4.2 potassium current): > 90% | V1/2 of steady-state activation (G–V curve) ([4]; in presence of 10 nM JZTX-V, +20 mV in absence): +30 mV | half-maximal inactivation potential (Vin1/2) ([4]; in presence of 10 nM JZTX-V, −44.5 mV without): −50.0 mV | reduction of sensitivity to the toxin vs WT Kv4.2 [5]: ~11 fold | JZTX-V binding affinity for Kv4.2 S1–S2 linker alanine mutants [6]: only a slight decrease | increase of affinity for JZTX-V vs WT Kv4.2 [7]: ~10 fold | percentage of current inhibition kv4.1 [8]: 25% (5µM) O | increase of affinity for JZTX-V vs WT Kv4.2 [9]: ~20 fold
